By IC50 is commonly meant the concentration needed to halve the response being measured. A low value points to greater potency in that assay.

Molecules are shown by their SMILES.

Assay [1] in a line: Displacement of casein from calpain 1 in porcine erythrocytes. The class given is cell-based, Sus scrofa.
Assay [2] has as its target T1, Calpain small subunit 1 (Sus scrofa, UniProt P04574).
T1 sequence (P04574 whole entry): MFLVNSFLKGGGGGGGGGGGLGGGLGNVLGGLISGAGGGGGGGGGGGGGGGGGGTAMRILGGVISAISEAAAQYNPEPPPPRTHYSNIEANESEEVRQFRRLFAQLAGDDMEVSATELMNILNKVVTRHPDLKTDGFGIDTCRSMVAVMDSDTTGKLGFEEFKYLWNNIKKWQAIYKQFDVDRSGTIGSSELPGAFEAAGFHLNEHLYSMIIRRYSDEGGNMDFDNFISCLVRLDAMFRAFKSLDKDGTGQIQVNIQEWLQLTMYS
The experiment in a line: Ability to displace labelledcasein from calpain I in porcine erythrocytes; Noninhibitor. It is filed as cell-based.

Assay [3] addresses T1, Calpain small subunit 1. The experiment in a line: Ability to displace labelledcasein from calpain I in porcine erythrocytes; Weak inhibitor. The class given is cell-based.

In assay [1], `COC(=O)[C@H](Cc1ccccc1)NC(=O)[C@H](Cc1ccccc1)NC(=O)c1ccccc1-c1ccccc1C(=O)N[C@@H](Cc1ccccc1)C(=O)N[C@@H](Cc1ccccc1)C(=O)OC` yielded an IC50 of 0.098 µM. In other words, the double-digit nanomolar range.

For `COC(=O)[C@H](Cc1ccc(O)cc1)NC(=O)c1ccccc1-c1ccccc1C(=O)N[C@@H](Cc1ccc(O)cc1)C(=O)OC`, in assay [2], the IC50 entry is listed as “No inhibition”.

`COC(=O)[C@H](Cc1ccccc1)NC(=O)[C@@H](NC(=O)c1ccccc1-c1ccccc1C(=O)N[C@H](C(=O)N[C@@H](Cc1ccccc1)C(=O)OC)C(C)C)C(C)C` returned an IC50 in assay [1] of 0.024 µM.

`CCC(C)[C@H](NC(=O)c1ccccc1-c1ccccc1C(=O)N[C@H](C(=O)OC)C(C)CC)C(=O)OC` (some centres not stated): the IC50 result in assay [2] is “No inhibition”.

On to `COC(=O)[C@H](C)NC(=O)c1ccccc1-c1ccccc1C(=O)N[C@@H](C)C(=O)OC`, for which the concentration for half-maximal inhibition (IC50) entry in assay [2] is “No inhibition”.

Compound `COC(=O)[C@@H](NC(=O)c1ccccc1-c1ccccc1C(=O)N[C@H](C(=O)OC)C(C)C)C(C)C` had an IC50 in assay [1] of 7 µM. In other words, the single-digit micromolar range.

Consider `COC(=O)[C@H](Cc1ccccc1)NC(=O)c1ccccc1-c1ccccc1C(=O)N[C@@H](Cc1ccccc1)C(=O)OC`, for which the IC50 in assay [1] came out at 0.064 µM.

In the case of `O=C(N[C@@H](Cc1ccccc1)C(=O)O)c1ccccc1-c1ccccc1C(=O)N[C@@H](Cc1ccccc1)C(=O)O`, the IC50 in assay [1] turned out to be 0.07 µM.

Consider `COC(=O)[C@H](Cc1ccccc1)NC(=O)c1ccccc1-c1ccccc1C(=O)O`, for which the IC50 result in assay [2] is given as “No inhibition”.

`O=C(N[C@@H](Cc1ccc(O)cc1)C(=O)O)c1ccccc1-c1ccccc1C(=O)N[C@@H](Cc1ccc(O)cc1)C(=O)O` had an IC50 in assay [1] of 200 µM.

In assay [1], `COC(=O)[C@H](Cc1c[nH]c2ccccc12)NC(=O)c1ccccc1-c1ccccc1C(=O)N[C@@H](Cc1c[nH]c2ccccc12)C(=O)OC` returned an IC50 of 0.037 µM.

`C=CCO[C@H]1O[C@H](CNC(=O)c2ccccc2-c2ccccc2C(=O)N[C@@H](Cc2ccc(O)cc2)C(=O)OC)C=C[C@@H]1CC(=O)N[C@@H](Cc1ccccc1)C(=O)N[C@@H](CC(C)C)C(=O)NC` returned an IC50 in assay [1] of 116 µM.

For `COC(=O)[C@H](Cc1c[nH]cn1)NC(=O)c1ccccc1-c1ccccc1C(=O)N[C@@H](Cc1c[nH]cn1)C(=O)OC`, the IC50 entry in assay [2] was “No inhibition”.

`CNC(=O)[C@@H](Cc1ccccc1)NC(=O)[C@H](Cc1ccccc1)NC(=O)c1ccccc1-c1ccccc1C(=O)N[C@@H](CC(C)C)C(=O)N[C@@H](CCSC)C(=O)OC`: in assay [3], the IC50 result is reported as “Weak inhibitor”.

`COC(=O)[C@H](Cc1ccccc1)NC(=O)[C@H](CCSC)NC(=O)c1ccccc1-c1ccccc1C(=O)N[C@@H](CCSC)C(=O)N[C@@H](Cc1c[nH]c2ccccc12)C(=O)OC` registered an IC50 in assay [1] of 77 µM.

Consider `COC(=O)[C@@H](NC(=O)[C@H](Cc1ccccc1)NC(=O)c1ccccc1-c1ccccc1C(=O)N[C@@H](Cc1ccccc1)C(=O)Nc1ccccc1-c1ccccc1NC(=O)[C@H](C)NC(=O)OCC1c2ccccc2-c2ccccc21)C(C)C`, for which the 50% inhibitory concentration (IC50) in assay [1] came out at 41 µM.

Turning to `COC(=O)[C@H](Cc1ccc(O)cc1)NC(=O)c1ccccc1-c1ccccc1C(=O)N[C@@H](Cc1ccccc1)C(=O)N[C@@H](CCSC)C(=O)OC`, the IC50 entry in assay [3] is listed as “Weak inhibitor”.
